From US20230313140A1, “METHOD FOR PREPARING T CELLS FOR ADOPTIVE T CELL THERAPY” (St. Jude Children's Research Hospital, Inc., priority 2022, published 2023) come the findings set out here.

The structures appear in SMILES notation.

Experiment [1] relates to c-Myc bound to chromatin at c-Myc binding sites. The experiment is described as follows: CUT&RUN ChIP-seq of c-Myc bound to chromatin in first-division CD8+ T cells. It counts as cell-based, mouse. The settings on record: brief treatment of activated CD8+ T cells; 200 nM, 2 hours; chromatin immunoprecipitation. On the procedure: CHIP-Sequencing. First-division CD8^+ T cells were sorted into medium with or without 200 nM silvestrol and cultured for additional 2 hours. CUT&RUN ChIP-seq experiments were performed as previously described (Meers et al. (2019) Elife 8) with slight modifications. […] Libraries were quantified using Qubit and size distribution was determined by Agilent 4200 TapeStation analysis before 15 million paired-end sequencing was performed.
Analysis for CHIP-seq Data. Paired-end sequencing reads were trimmed with Trim Galore (version 0.5.0) with default parameters. Reads were aligned to the reference mouse mm10 assembly using Bowtie 2 (version 2.3.5.1) (Langmead & Salzberg (2012) Nat. Methods 9:357-359) with settings—end-to-end—very-sensitive—nomixed—no-discordant-q—phred33-I 10-X 700. The resulting alignments, recorded in BAM file, were sorted, indexed, and marked for duplicates with Picard MarkDuplicate function (version 2.19.0, Broad Institute). […] C-Myc occupancy was normalized by scaling to 1 million mapped reads using BEDTools (version 2.27.1) (Quinlan & Hall (2010) Bioinformatics 26:841-842) and bedGraphToBigWig (version 377) (Kent et al. (2010) Bioinformatics 26:2204-2207) and visualized as heatmaps using deepTools plotHeatmap (version 3.2.1) (Ramirez et al. (2016) Nucl. Acids Res. 44:W160-165).

For a further experiment, the system named is GFP-c-Myc. It is filed as cell-based, mouse. The note with it: sorted first-division cells treated for 2 hours, 200 nM.
Experiment [2] relates to first-division c-Myc^high CD8+ T cells. The experiment can be described thus: Adoptive transfer and in vivo influenza infection and challenge, donor cell frequency. The arrangement: species or system mouse. The settings on record: c-Myc^high cells treated 2 hours with 200 nM after sorting, transferred into recipients; A/X-31-OVA day 0, challenge day 30; spleen.
The next experiment concerns Sirt1. The experiment can be described thus: Immunofluorescence imaging of Sirt1 distribution between dividing sister cells. The settings on record: silvestrol 200 nM or Hippuristanol 500 nM, last hour of activation.
The test system of a further experiment is c-Myc. The experiment is described as follows: Immunofluorescence imaging of c-Myc distribution in first-division sister cells. The note with it: treatment immediately prior to the first division (last hour of activation); silvestrol 200 nM, Hippuristanol 500 nM.
The test system of experiment [3] is c-Myc association with RPL26 and S6. The experiment is described as follows: STORM analysis of c-Myc translating polysomes. It counts as cell-based, mouse. The note with it: brief treatment, 91 μM. The method, then: Murine CD8^+ T Lymphocytes. […] Stochastic Optical Reconstruction Microscopy (STORM). […] PFA was added to the culture at a final concentration of 4% (v/v), the cell suspension was transferred into […], and fixation continued for 10 minutes at RT. During all sample preparation, cells were pelleted for 3 minutes at 2000 rpm between each buffer. […] Reactive groups were quenched in 20 mM glycine, and non-specific antibody binding was blocked in TBS+2% BSA. […] Cells were washed with TBS and incubated with the following secondary antibodies for 1 hour at RT: CF488-labeled donkey anti-rat (1:1000, Biotium), CF568-labeled donkey anti-Goat (1:1000, Biotium), and AF647-labeled donkey anti-rabbit (1:1000, Jackson ImmunoResearch). Following two washes with TBS, cells were post-fixed in 1% (v/v) PFA for 5 minutes at RT, pelleted and resuspended in 20 μl cell culture matrix sold under […] drop of the cell suspension was placed into a cryomold, overlaid with Tissue Freezing Medium (Fisher Scientific Company) and snap frozen on dry ice. […] cryosections were placed on poly-L-lysine coated #1.5 18-mm coverslips (Electron Microscopy Sciences) and affixed to 35-mm dishes (Mattek) using epoxy resin. […] At least 25 cells from two independent experiments were analyzed. […]

The next experiment has as its system ribosomal protein S6. The experiment is described as follows: General TORC1 activity measured by phosphorylation of ribosomal protein S6. It is filed as cell-based, mouse. The settings on record: activated, undivided cells treated with dynein inhibitors. The source says:
Murine CD8^+ T Lymphocytes. […] Immunofluorescence Staining and Imaging.

The test system of another experiment is p-eIF4GI. The experiment is described as follows: Imaging of polarization of p-eIF4GI in activated, undivided CD8+ T cells. The note with it: Dynarrestin 25 μM, Ciliobrevin D 50 μM.
A further experiment deals with cytosolic c-Myc. The experiment can be described thus: Imaging of polarization of cytosolic c-Myc in activated, undivided CD8+ T cells. The note with it: Dynarrestin 25 μM, Ciliobrevin D 50 μM.
The subject of a further experiment is TORC1. The experiment can be described thus: Imaging of polarization of TORC1 activity (phospho-mTOR) in activated, undivided CD8+ T cells. The settings on record: Dynarrestin 25 μM, Ciliobrevin D 50 μM.

Experimental for Sirt1: Murine CD8^+ T Lymphocytes. For CD8^+ T cell stimulation, splenocytes obtained from wild-type animals were enriched for antigen presenting cells (APCs) using CD11c MicroBeads (Miltenyi Biotec) and pulsed with 5 nM of [sequence] peptide (SEQ ID NO:1; AnaSpec Inc.) for 1 hour at 37° C. CD8^+ T cells were isolated from lymph nodes using the Dynabeads Untouched Mouse CD8 Cells Kit (Invitrogen) and overlain onto the peptide-pulsed APCs. […] Whenever assessment of cell division was required, CD8^+ T cells were labeled with a fluorescent dye sold under the tradename CELLTRACE® Violet (CTV) Cell Proliferation Kit (Invitrogen) at 5 μM per 1×10^7 cells for 10 minutes at 37° C. For in vivo stimulation, CTV-labeled CD8^+ T cells were transferred by tail vein injection of wild-type recipients. Twenty-four hours after transfer, recipients were immunized by subcutaneous injection of 50 μg of [sequence] peptide (SEQ ID NO:1) into the neck region. Donor cells were obtained from axillary and brachial lymph nodes 8 hours after immunization. CD8^+ T cells were cultured in RPMI 1640 (Gibco) supplemented with 10% (v/v) heat-inactivated fetal bovine serum (FBS), lx MEM non-essential amino acids (Gibco), 1 mM Sodium pyruvate (Gibco), 2 mM L-glutamine (Gibco), 55 μM 2-mercaptoethanol (Gibco), 50 U/ml penicillin and 50 μg/ml streptomycin (Corning) at 37° C. in 5% CO2. […]
Experimental for cytosolic c-Myc: (§1) Murine CD8^+ T Lymphocytes. For CD8^+ T cell stimulation, splenocytes obtained from wild-type animals were enriched for antigen presenting cells (APCs) using CD11c MicroBeads (Miltenyi Biotec) and pulsed with 5 nM of [sequence] peptide (SEQ ID NO:1; AnaSpec Inc.) for 1 hour at 37° C. CD8^+ T cells were isolated from lymph nodes using the Dynabeads Untouched Mouse CD8 Cells Kit (Invitrogen) and overlain onto the peptide-pulsed APCs. Alternatively, CD8^+ T cells were stimulated on plate-bound anti-CD3ε (1 μg/ml, Bio X Cell), anti-CD28 (1 μg/ml, Bio X Cell), and recombinant human ICAM (0.5 μg/ml) produced in insect cells (Huppa et al. (2010) Nature 463:963-967); or by incubation with PMA (10 ng/ml, MedChemExpress) and Ionomycin (1 μM, MedChemExpress). Whenever assessment of cell division was required, CD8^+ T cells were labeled with a fluorescent dye sold under the tradename CELLTRACE® Violet (CTV) Cell Proliferation Kit (Invitrogen) at 5 μM per 1×10^7 cells for 10 minutes at 37° C. […]
(§2) The distribution of proteins in undivided cells was analyzed using Imaris 9.5 software (Oxford Instruments).
Experimental for p-eIF4GI: as §1, §2

Consider `COC(=O)[C@H]1[C@@H](O)[C@@]2(O)c3c(OC)cc(O[C@@H]4O[C@@H]([C@H](O)CO)CO[C@H]4OC)cc3O[C@@]2(c2ccc(OC)cc2)[C@@H]1c1ccccc1` [silvestrol], for which, in experiment [1], the “c-Myc bound to chromatin at c-Myc binding sites” value was “greatly reduced”. For the same compound, the “c-Myc levels in c-Myc^high cells (GFP-c-Myc MFI, FIG. 1)” value in the experiment with GFP-c-Myc was “reduce c-Myc levels in c-Myc^high cells to those observed in c-Myc^low cells”. Further, the “frequency of donor cells on day 9 after A/PR/8-OVA challenge (FIG. 2)” value in experiment [2] is listed as “detected at numbers comparable to those found for sorted c-Myc^low cells”. Besides, the “Sirt1 protein distribution between dividing sister cells” value in the experiment on Sirt1 is reported as “unaffected”. The “c-Myc asymmetry in first-division sister cells” value in the experiment on c-Myc is recorded as “rapid equilibration of c-Myc levels”.
Take `COc1ccc(C[C@H](N)C(=O)N[C@H]2[C@@H](O)[C@H](n3cnc4c(N(C)C)ncnc43)O[C@@H]2CO)cc1` [puromycin]: in experiment [3], the “association of c-Myc with RPL26 and S6” value is recorded as “significantly reduced”.
For the compound `CCOC(=O)c1sc(Nc2ccc(F)cc2F)nc1-c1ccc(N(CC)CC)cc1` [Dynarrestin], the “TORC1 activity in general, phosphorylation of ribosomal protein S6” value with ribosomal protein S6 is recorded as “remained unaffected”. Also, in the experiment on p-eIF4GI, the “polarization of p-eIF4GI” value was “abrogated the polarization”. For the same compound, the “polarization of cytosolic c-Myc” value with cytosolic c-Myc is listed as “abrogated the polarization”. Also, the “polarization of TORC1” value in the experiment with TORC1 is “abrogated the polarization”.
As for `C[C@H]1C[C@@]2(O[C@H]3C[C@H]4[C@@H]5CC[C@H]6C[C@H](O)CC[C@]6(C)[C@H]5[C@@H](O)C[C@]4(C)[C@H]3[C@@]2(C)O)OC1(C)C` [Hippuristanol], in the experiment on Sirt1, the “Sirt1 protein distribution between dividing sister cells” value is given as “unaffected”.
As for `N#CC(=C(O)c1ccc(Cl)cc1Cl)c1nc2cc(Cl)ccc2c(=O)[nH]1` [Ciliobrevin D], the “TORC1 activity in general, phosphorylation of ribosomal protein S6” value with ribosomal protein S6 is listed as “remained unaffected”. In the experiment on p-eIF4GI, the “polarization of p-eIF4GI” value was “abrogated the polarization”. In addition, the “polarization of cytosolic c-Myc” value in the experiment with cytosolic c-Myc is “abrogated the polarization”. The “polarization of TORC1” value in the experiment with TORC1 is “abrogated the polarization”.
